Assay results taken from patent publication US9328106B2, “Cyclic ether pyrazol-4-yl-heterocyclyl-carboxamide compounds and methods of use” (Genentech, Inc., priority 2012, dated 2016).

Biological target: PIM1 (Homo sapiens (Human), UniProt P11309)
Assay: biochemical
Format: biochemical
Conditions: not given

Sequence of PIM1 (P11309 whole entry): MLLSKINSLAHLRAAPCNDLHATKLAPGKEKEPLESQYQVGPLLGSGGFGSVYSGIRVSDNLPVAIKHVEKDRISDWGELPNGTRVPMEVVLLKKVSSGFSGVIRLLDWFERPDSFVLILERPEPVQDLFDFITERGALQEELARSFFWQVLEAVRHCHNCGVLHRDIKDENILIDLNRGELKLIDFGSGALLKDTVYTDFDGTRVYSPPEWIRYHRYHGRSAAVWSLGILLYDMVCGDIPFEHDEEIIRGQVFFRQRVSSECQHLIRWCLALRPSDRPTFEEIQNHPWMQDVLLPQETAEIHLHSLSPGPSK

| Ki [nM] | Structure (SMILES) |
| --- | --- |
| 0.037 | Cn1ncc(NC(=O)c2csc(-c3c(F)cc(C(O)C4CC4)cc3F)n2)c1[C@@H]1CC[C@@H](N)[C@H](F)CO1 (stereo partly drawn) [Example 275, N-(5-((2S,5R,6S)-5-amino-6-fluorooxepan-2-yl)-1-methyl-1H-pyrazol-4-yl)-2-(4-(cyclopropyl(hydroxy)methyl)-2,6-difluorophenyl)thiazole-4-carboxamide] |

Same assay, conditions: 20 pM PIM1, 1 μM FAM-peptide, 10 μM ATP, 90 minutes at room temperature; read-out: PIM1 LC3K (KI)

| Ki [nM] | Structure (SMILES) |
| --- | --- |
| 0.01 | Cn1ncc(NC(=O)c2nc(-c3ccc(C(F)(F)F)cc3F)sc2N)c1[C@@H]1CC[C@@H](N)[C@@H](F)CO1 [Example 259, 5-amino-N-(5-((2S,5R,6R)-5-amino-6-fluorooxepan-2-yl)-1-methyl-1H-pyrazol-4-yl)-2-(2-fluoro-4-(trifluoromethyl)phenyl)thiazole-4-carboxamide] |
| 0.037 | Cn1ncc(NC(=O)c2nc(-c3cc(F)cc(F)c3F)sc2N)c1[C@@H]1CC[C@@H](N)[C@@H](F)CO1 [Example 261, 5-amino-N-(5-((2S,5R,6R)-5-amino-6-fluorooxepan-2-yl)-1-methyl-1H-pyrazol-4-yl)-2-(2,3,5-trifluorophenyl)thiazole-4-carboxamide] |
| 0.127 | CO[C@H]1CO[C@H](c2c(NC(=O)c3nc(-c4cc(F)cc(F)c4F)sc3N)cnn2C)CC[C@H]1N [Example 263, 5-amino-N-(5-((2S,5R,6R)-5-amino-6-methoxyoxepan-2-yl)-1-methyl-1H-pyrazol-4-yl)-2-(2,3,5-trifluorophenyl)thiazole-4-carboxamide] |
| 0.02 | CO[C@H]1CO[C@H](c2c(NC(=O)c3nc(-c4cc(C)ccc4F)sc3N)cnn2C)CC[C@H]1N [Example 264, 5-amino-N-(5-((2S,5R,6R)-5-amino-6-methoxyoxepan-2-yl)-1-methyl-1H-pyrazol-4-yl)-2-(2-fluoro-5-methylphenyl)thiazole-4-carboxamide] |
| 0.098 | Cn1ncc(NC(=O)c2nc(-c3cccc(F)c3C(F)(F)F)sc2N)c1[C@@H]1CC[C@@H](N)[C@@H](F)CO1 [Example 267, 5-amino-N-(5-((2S,5R,6R)-5-amino-6-fluorooxepan-2-yl)-1-methyl-1H-pyrazol-4-yl)-2-(3-fluoro-2-(trifluoromethyl)phenyl)thiazole-4-carboxamide] |
| 0.028 | Cn1ncc(NC(=O)c2nc(-c3cccc(C(F)(F)F)c3F)sc2N)c1[C@@H]1CC[C@@H](N)[C@@H](F)CO1 [Example 268, 5-amino-N-(5-((2S,5R,6R)-5-amino-6-fluorooxepan-2-yl)-1-methyl-1H-pyrazol-4-yl)-2-(2-fluoro-3-(trifluoromethyl)phenyl)thiazole-4-carboxamide] |
| 0.053 | Cn1ncc(NC(=O)c2nc(-c3ccccc3C(F)(F)F)sc2N)c1[C@@H]1CC[C@@H](N)[C@@H](F)CO1 [Example 270, 5-amino-N-(5-((2S,5R,6R)-5-amino-6-fluorooxepan-2-yl)-1-methyl-1H-pyrazol-4-yl)-2-(2-(trifluoromethyl)phenyl)thiazole-4-carboxamide] |
| 0.992 | Cn1ncc(NC(=O)c2nc(C3CCCC3)sc2N)c1[C@@H]1CC[C@@H](N)[C@@H](F)CO1 [Example 272, 5-amino-N-(5-((2S,5R,6R)-5-amino-6-fluorooxepan-2-yl)-1-methyl-1H-pyrazol-4-yl)-2-cyclopentylthiazole-4-carboxamide] |
| 0.007 | Cc1cccc(F)c1-c1nc(C(=O)Nc2cnn(C)c2[C@@H]2CC[C@@H](N)[C@@H](F)CO2)c(N)s1 [Example 273, 5-amino-N-(5-((2S,5R,6R)-5-amino-6-fluorooxepan-2-yl)-1-methyl-1H-pyrazol-4-yl)-2-(2-fluoro-6-methylphenyl)thiazole-4-carboxamide] |
| 0.02 | Cc1ccc(F)c(-c2nc(C(=O)Nc3cnn(C)c3[C@@H]3CC[C@@H](N)[C@@H](F)CO3)c(N)s2)c1 [Example 274, 5-amino-N-(5-((2S,5R,6R)-5-amino-6-fluorooxepan-2-yl)-1-methyl-1H-pyrazol-4-yl)-2-(2-fluoro-5-methylphenyl)thiazole-4-carboxamide] |

The remaining lines, values behind:

| Structure (SMILES) | Ki [nM] |
| --- | --- |
| CO[C@H]1CO[C@H](c2c(NC(=O)c3csc(-c4c(F)ccc(F)c4F)n3)cnn2C)CC[C@H]1N [Example 258, N-(5-((2S,5R,6R)-5-amino-6-methoxyoxepan-2-yl)-1-methyl-1H-pyrazol-4-yl)-2-(2,3,6-trifluorophenyl)thiazole-4-carboxamide] | 0.145 |
| Cn1ncc(NC(=O)c2nc(-c3c(F)ccc(F)c3F)sc2N)c1[C@@H]1CC[C@@H](N)[C@@H](F)CO1 [Example 260, 5-amino-N-(5-((2S,5R,6R)-5-amino-6-fluorooxepan-2-yl)-1-methyl-1H-pyrazol-4-yl)-2-(2,3,6-trifluorophenyl)thiazole-4-carboxamide] | 0.004 |
| CO[C@H]1CO[C@H](c2c(NC(=O)c3nc(-c4c(F)ccc(F)c4F)sc3N)cnn2C)CC[C@H]1N [Example 262, 5-amino-N-(5-((2S,5R,6R)-5-amino-6-methoxyoxepan-2-yl)-1-methyl-1H-pyrazol-4-yl)-2-(2,3,6-trifluorophenyl)thiazole-4-carboxamide] | 0.01 |
| COc1cc(F)c(-c2nc(C(=O)Nc3cnn(C)c3[C@@H]3CC[C@@H](N)[C@@H](OC)CO3)cs2)c(F)c1 [Example 265, N-(5-((2S,5R,6R)-5-amino-6-methoxyoxepan-2-yl)-1-methyl-1H-pyrazol-4-yl)-2-(2,6-difluoro-4-methoxyphenyl)thiazole-4-carboxamide] | 0.034 |
| Cn1ncc(NC(=O)c2nc(-c3ccccc3OC(F)(F)F)sc2N)c1[C@@H]1CC[C@@H](N)[C@@H](F)CO1 [Example 266, 5-amino-N-(5-((2S,5R,6R)-5-amino-6-fluorooxepan-2-yl)-1-methyl-1H-pyrazol-4-yl)-2-(2-(trifluoromethoxy)phenyl)thiazole-4-carboxamide] | 0.155 |
| CO[C@H]1CO[C@H](c2c(NC(=O)c3nc(-c4c(C)cccc4F)sc3N)cnn2C)CC[C@H]1N [Example 269, 5-amino-N-(5-((2S,5R,6R)-5-amino-6-methoxyoxepan-2-yl)-1-methyl-1H-pyrazol-4-yl)-2-(2-fluoro-6-methylphenyl)thiazole-4-carboxamide] | 0.052 |
| Cn1ncc(NC(=O)c2nc(C3=CCCC3)sc2N)c1[C@@H]1CC[C@@H](N)[C@@H](F)CO1 [Example 271, 5-amino-N-(5-((2S,5R,6R)-5-amino-6-fluorooxepan-2-yl)-1-methyl-1H-pyrazol-4-yl)-2-(cyclopent-1-en-1-yl)thiazole-4-carboxamide] | 0.062 |
| COC(c1cc(F)c(-c2nc(C(=O)Nc3cnn(C)c3[C@@H]3CC[C@@H](N)[C@H](F)CO3)cs2)c(F)c1)C1CC1 (stereo partly drawn) [Example 276, N-(5-((2S,5R,6S)-5-amino-6-fluorooxepan-2-yl)-1-methyl-1H-pyrazol-4-yl)-2-(4-(cyclopropyl(methoxy)methyl)-2,6-difluorophenyl)thiazole-4-carboxamide] | 0.084 |
| COc1ccc(F)c(F)c1-c1nc(C(=O)Nc2cnn(C)c2[C@@H]2CC[C@@H](N)[C@@H](F)CO2)c(N)s1 [Example 277, 5-amino-N-(5-((2S,5R,6R)-5-amino-6-fluorooxepan-2-yl)-1-methyl-1H-pyrazol-4-yl)-2-(2,3-difluoro-6-methoxyphenyl)thiazole-4-carboxamide] | 0.143 |
| Cn1ncc(NC(=O)c2nc(-c3c(F)cccc3C(F)(F)F)sc2N)c1[C@@H]1CC[C@@H](N)[C@@H](F)CO1 [Example 278, 5-amino-N-(5-((2S,5R,6R)-5-amino-6-fluorooxepan-2-yl)-1-methyl-1H-pyrazol-4-yl)-2-(2-fluoro-6-(trifluoromethyl)phenyl)thiazole-4-carboxamide] | 0.061 |
